# Measured values from patent US12343350B2, “Istaroxime-containing intravenous formulation for the treatment of acute heart failure (AHF)” (Windtree Therapeutics, Inc., priority 2019, dated 2025).
# Counter-ions that a name gives are not always drawn. Like-named read-outs stand apart in the source and are kept apart here. Marks after values point to notes of the source that are not given here.
# Key:
# [1] = Plasma levels of istaroxime and its metabolites in patients (HPLC-MS/MS); assay type: in vivo, human; details: 24 h infusion of 0.5 or 1 μg/kg/min istaroxime, Caucasian and Chinese patients
# Protocol: The quantitative determination of PST 2744 and its metabolite PST 2915 in human plasma was determined by the HPLC-MS/MS method that included a mobile phase of 70:30 acetonitrile/water, 1 mL/L 1M formic acid, and 1 mL/L 5M ammonium acetate. The flow rate was 1 mL/min, and the chromatographic separation was by reversed phase HPLC (Column: SYNERGI 4μ POLAR-RP80A 150×4.6 mm equipped with a Security-guard Phenomenex Polar-RP 4×3 mm). Detection was performed by MS/MS, and the acquisition mode was Multiple Reaction Monitoring (MRM).
# The quantitative determination of istaroxime metabolies PST 2922 and PST 3093 in human plasma was also measured by the HPLC-MS/MS method. In this case, the mobile phase was 50:50 H2 O/CH3 CN (v/v) and 500 μL/L 98-100% HCOOH. The flow rate was 1 mL/min and chromatographic separation was done by reversed-phase HPLC (Column: Phenomenex Phenyl hexyl, 150×4.6 mm, equipped with a Phenomenex phenyl propyl guard-cartridge) under isocratic conditions. Detection was performed by MS/MS (376.0→282.0 amu for PST2922, 378.0→284.0 amu for PST 3093 and 362.0→268.0 amu for PST 3418, IS).
# dog renal Na,K-ATPase = dog renal Na,K-ATPase (Canis lupus familiaris (Dog) (Canis familiaris), UniProt P50997); assay: Inhibition of dog renal Na,K-ATPase activity (32P-ATP); assay type: biochemical
# Protocol: Kidneys were sliced and the outer medulla was dissected, pooled and suspended (1 g/10 ml) in a sucrose-histidine solution, containing 250 mM sucrose, 30 mM histidine and 5 mM EDTA, pH 7.2 and homogenized. The homogenate was centrifuged at 6.000 g for 15 min, the supernatant was decanted and centrifuged at 48.000 g for 30 min. The pellet was suspended in the sucrose-histidine buffer and incubated for 20 min with a sodium-dodecyl-sulphate (SDS) solution dissolved in a gradient buffer, containing 25 mM imidazole and 1 mM EDTA, pH 7.5. […] The pellet was suspended in the gradient buffer.
# Increasing concentrations of the standard ouabain, or tested compound, were incubated with 0.3 μg of purified dog kidney enzyme for 10 min at 37° C. in 120 μl final volume of a medium containing 140 mM NaCl, 3 mM MgCl2, 50 mM Hepes-Tris, 3 mM ATP at a pH 7.5. Then, 10 μl of incubation solution containing 10 mM KCl and 20 nCi of ^32P-ATP (3-10 Ci/mmol, Perkin Elmer) was added, and the reaction was continued for 15 min at 37° C. The reaction was then stopped by acidification with 20% v/v ice-cold perchloric acid. ^32P was separated by centrifugation with activated Charcoal (Norit A, Serva) and the radioactivity was measured. The inhibitory activity was expressed as percent of the control samples carried out in the absence of ouabain or tested compound.
# SERCA2a [2] = target: SERCA2a (Canis lupus familiaris (Dog) (Canis familiaris), UniProt O46674); assay: SERCA2a ATPase activity in heart-derived SR microsomes from normal dog; assay type: biochemical; details: normal dog SR microsomes
# Protocol: Male beagle dogs were used for obtaining cardiac tissues for SERCA2a-enriched sarcoplasmic reticulum preparations. Healthy dogs were utilized for obtaining the data in Table 3. Chronic heart failure was induced in dogs by multiple intracoronary microembolizations with polystyrene latex microspheres ([…], Polysciences, Warrington, PA, USA) as described previously (see Sabbah H N et al., Am J Physiol. 1991; 260:H1379-84). The experiments were conducted in the General Pharmacology Department of Sigma-Tau, Rome, Italy.
# Left ventricle tissues were dissected, homogenized in 4 volumes of 10 mM NaHCO3 (pH 7), 1 mM PMSF, 10 μg/ml Aprotinin and Leupeptin and centrifuged at 12.000 g for 15 minutes, as described in Nediani C. et al. (J Biol Chem. 1996; 271:19066-73). Supernatants were filtered and centrifuged at 100.000 g for 30 min. Contractile proteins were extracted by suspending the pellets with 0.6 M KCl, 30 mM Histidine, pH 7 and further centrifugation at 100.000 g for 30 min. Final pellets were reconstituted with 0.3 M Sucrose, 30 mM Histidine, pH 7.
# SERCA2a activity was measured in vitro as ^32P-ATP hydrolysis at different Ca2^+ concentrations (100 to 3000 nM) in the absence and presence of the tested compounds as described previously (see Micheletti R. et al., Am J Card 2007; 99:24A-32A). Increasing concentrations of each compound (from 0.05 to 300 nM) were pre-incubated with 2 μg of microsomes for 5 min at 4° C. in 80 μl of a solution containing 100 mM KCl, 5 mM MgCl2, 1 μM A23187, 20 mM Tris, pH 7.5. Then, 20 μl of 5 mM Tris-ATP containing 50 nCi of ^32P-ATP (3-10 Ci/mmol, Perkin Elmer) was added. The ATP hydrolysis was continued for 15 min at 37° C. and was stopped by acidification with 100 μl of 20% v/v ice-cold perchloric acid. ^32P was separated by centrifugation with activated charcoal (Norit A, SERVA) and the radioactivity was measured. SERCA2a-dependent activity was identified as the portion of total hydrolytic activity inhibited by 10 μM cyclopiazonic acid (see Seidler N W. et al., J Biol Chem. 1989; 264:17816-23).
# Dose-response curves were fitted by using a sigmoidal curve fitting software and the maximal velocity (Vmax) activity and the Kd Ca2^+ were calculated (Synergy Software KaleidaGraph 3.6).
# The compounds disclosed herein were tested on SERCA2a ATPase activity prepared from normal and failing dogs in a range of concentrations from […]. The effect has been expressed as % increase of the Vmax activity of a control sample run in the absence of compound. Data are mean & SD, where n indicates the number of experiments.
# SERCA2a [3] = details: previous studies; cited from earlier work
# [4] = death due mainly to arrhythmias; cited from earlier work
# [5] = stimulation of cardiac pumping ability; cited from earlier work
# Sequence of SERCA2a (Canis lupus familiaris (Dog) (Canis familiaris), UniProt O46674) (O46674 whole entry): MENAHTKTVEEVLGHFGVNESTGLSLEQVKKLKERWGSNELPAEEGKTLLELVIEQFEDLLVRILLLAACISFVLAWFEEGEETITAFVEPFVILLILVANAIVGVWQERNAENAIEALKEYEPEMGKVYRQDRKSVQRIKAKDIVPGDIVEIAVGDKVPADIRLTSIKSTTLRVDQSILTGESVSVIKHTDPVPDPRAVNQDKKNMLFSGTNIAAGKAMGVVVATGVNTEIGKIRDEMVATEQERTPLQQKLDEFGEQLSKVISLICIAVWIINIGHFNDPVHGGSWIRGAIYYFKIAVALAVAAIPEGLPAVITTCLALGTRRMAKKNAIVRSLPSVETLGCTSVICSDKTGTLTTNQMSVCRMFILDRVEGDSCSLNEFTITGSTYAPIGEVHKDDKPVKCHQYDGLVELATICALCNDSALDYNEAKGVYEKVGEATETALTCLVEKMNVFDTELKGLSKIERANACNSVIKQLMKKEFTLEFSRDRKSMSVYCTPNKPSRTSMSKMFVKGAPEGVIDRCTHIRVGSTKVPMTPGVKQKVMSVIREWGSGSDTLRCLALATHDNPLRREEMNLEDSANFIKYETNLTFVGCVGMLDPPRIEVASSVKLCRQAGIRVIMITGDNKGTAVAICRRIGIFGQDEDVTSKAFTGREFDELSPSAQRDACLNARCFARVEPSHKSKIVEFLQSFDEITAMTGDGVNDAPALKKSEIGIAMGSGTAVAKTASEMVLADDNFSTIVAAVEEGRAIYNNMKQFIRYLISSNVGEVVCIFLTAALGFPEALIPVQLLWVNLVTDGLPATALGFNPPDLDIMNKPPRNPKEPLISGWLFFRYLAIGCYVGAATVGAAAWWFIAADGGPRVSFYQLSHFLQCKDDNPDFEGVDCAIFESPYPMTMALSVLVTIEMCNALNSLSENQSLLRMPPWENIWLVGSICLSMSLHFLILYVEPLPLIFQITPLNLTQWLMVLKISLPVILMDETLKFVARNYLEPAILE
compound,measurement,setting,value
"C[C@]12CCC(=NOCCN)CC1[C@H](O)CC1C2CC[C@]2(C)C(=O)CCC12 (stereo partly drawn) [PST 2915, (E,Z)-3-(2-Aminoethoxyimino)-6beta-hydroxyandrostan-17-one hydrochloride]",plasma concentration course during the infusion period,[1],continue to accumulate
same,IC50,"dog renal Na,K-ATPase",2100 nM
same,% increase vs control (Vmax),SERCA2a [2]; 0.1 nM compound,11%
same,% increase vs control (Vmax),SERCA2a [2]; 10 nM compound,16* %
C[C@H]1O[C@@H](O[C@H]2[C@@H](O)C[C@H](O[C@H]3[C@@H](O)C[C@H](O[C@H]4CC[C@@]5(C)[C@H](CC[C@@H]6[C@@H]5C[C@@H](O)[C@]5(C)[C@@H](C7=CC(=O)OC7)CC[C@]65O)C4)O[C@@H]3C)O[C@@H]2C)C[C@H](O)[C@@H]1O [Digoxin],IC50,"dog renal Na,K-ATPase; purified dog kidney enzyme, 37° C., read-out: IC50, inhibition of dog renal Na,K-ATPase",180 nM
same,SERCA2a activity stimulation,SERCA2a [3],failed to stimulate
same,serum concentration threshold above which increased risk of death,[4],0.9 ng/mL
COC(=O)N1CCN(Cc2cccc(NC(=O)Nc3ccc(C)nc3)c2F)CC1 [omecamtiv],plasma levels of Hs TnT,[5],associated with an increase
